Test results taken from US9193983B2, “Assays for mutagenesis detection” (The Regents of the University of California, priority 2007, dated 2015).

Assays:
Saccharomyces cerevisiae [1] = details: cited from earlier work; for induction of DNA deletions: previous experiments
[2] = tested on: S. cerevisiae strain RS112; assay: well-based DEL assay (MTS colorimetric, 96/384-well): genotoxicity and cytotoxicity
From the text: (§1) The RS112 yeast DEL assay tester strain of Saccharomyces cerevisiae contains a plasmid with an internal fragment of the HIS3 gene integrated at the genomic HIS3 locus, yielding an integrative disruption of the HIS3 gene. This disruption results in two copies of the HIS3 gene, each copy having one terminal deletion. Recombination between the two his3 deletion alleles results in reversion to HIS3^+ and growth in the absence of histidine. This recombination event leads to a 6 kb DNA deletion comprising the integrated plasmid leading to deletion (DEL) events. The assay utilizing DEL events involves overnight growth of a single colony of the RS112 strain and subsequent subculture with the presence or absence of the chemical being tested for 17 hours at 30° C. under constant shaking. Yeast are then plated onto SC medium to determine the number of survivors (individual colonies are counted) and onto SC-HIS medium to score for DEL events. The traditional DEL assay is very powerful if one is testing a limited number of chemicals but becomes impractical for screening large numbers of chemicals and chemical libraries.
(§2) For 384-well plate format, 1 μl of yeast (˜100,000 cells) was pipetted into 8 microplate wells for each compound, four of which containing 70 μl SC media and four containing 70 μl SC-HIS media; each well was supplemented with 14 μl of MTS and 5 μl of compound. For 96-well plate format, the above was consistent except media, MTS, and compound volumes were 100 μl, 20 μl, and 7 μl, respectively. Control wells were treated with water in lieu of compound. The outermost columns of the 96-well plate and outer two columns of each 384-well plate were excluded from experimentation lest edge evaporative effects alter the data. Plates were incubated at 30° C. at normal atmosphere during which yeast were grown in the presence of the tested compound and 490 nm absorbance was measured 10-18 hr later using a Molecular Devices SpectraMax M5 microplate reader (Sunnyvale, Calif.).
(§3) Survival for a given compound treatment was quantified by averaging the absorbance across the four treated wells in SC media and dividing that by the average absorbance of control wells. DEL induction was quantified by dividing the absorbance of each SC-HIS well by the corresponding paired SC well. Thus for each compound done in quadruplicate, each plate contains a set of 4 different measurements of DEL induction. For each compound, ratio of the average DEL induction in treated versus control cultures was taken as the fold-increase in DEL events (HIS^+ growth). A Student's t-test was performed on the 4 measurements of DEL induction and the same measurements recorded from control wells to determine significance of the fold-increase. It should be noted that this value of fold-increase is analyzed statistically for significance and not absolute; thus two different chemicals may have the same fold-increase but varying levels of significance. In plots and tables, data from a single experiment performed in quadruplicate is presented; all experiments were repeated independently in at least 3 separate experiments in both 96 and 384-well plate formats.

Saccharomyces cerevisiae [3] = details: Angeli's salt as HNO donor; cited from earlier work
[4] = well-based DEL assay (MTS colorimetric, 96/384-well): genotoxicity and cytotoxicity; details: Saccharomyces cerevisiae; for viability: Cytotoxicity (% survival)
From the text: as §1, §2, §3

Saccharomyces cerevisiae [5] = assay: traditional plate-based yeast DEL assay (DNA deletions); assay type: cell-based; details: 1.4 mM; background about 20 DEL events per 100,000 cells
Experimental: In one embodiment, yeast cells (Saccharomyces cerevisiae) having a disruption of the his gene as the DEL selection marker are treated with test agents in 25 ml tubes and then plated for about 48 h at 30° C. Following treatment the cells are washed, for example, with PBS, and sonicated to assure dissociation of the cells into a single-cell suspension. The cells are then plated at an appropriate dilution (see below) onto medium lacking histidine as well as standard medium containing histidine. The histidine-lacking medium is used to determine recombination frequency. Standard medium (medium containing histidine) is used to determine the overall toxicity of the test agent.

[6] = S. cerevisiae strain RS112 (diploid yeast cells)

## CC(=O)N[C@@H](CS)C(=O)O [NAC, N-acetylamine]
Saccharomyces cerevisiae [1]
  protection against HNO induced DNA deletions: protected

## [K+].[K+].[O]=[Cr](=[O])([O-])[O][Cr](=[O])(=[O])[O-] [Cr (6), K2Cr2O7]
[2]; 0.2 mM final in well
  Cytotoxicity (% survival): 32.1%
  Cytotoxicity significance: *** (*** (p < 0.005))
  DEL (fold increase): 2.13 fold
  DEL significance: *** (*** (p < 0.005))
[2]; 0.7 mM final in well
  Cytotoxicity (% survival): 9.91%
  Cytotoxicity significance: *** (*** (p < 0.005))
  DEL (fold increase): 3.78 fold
  DEL significance: *** (*** (p < 0.005))
[2]; 1.4 mM final in well
  Cytotoxicity (% survival): 10.8%
  Cytotoxicity significance: *** (*** (p < 0.005))
  DEL (fold increase): 3.12 fold
  DEL significance: *** (*** (p < 0.005))
[2]; between 0.2 and 1.4 mM (~20-140 μg/ml)
  induction of the DEL assay: very potent induction of the DEL assay
[2]; with increased dose between 0.2 and 1.4 mM (~20-140 μg/ml)
  survival: severely decreased survival
Saccharomyces cerevisiae [1]
  induction of DNA deletions: induced DNA deletions

## N=O [HNO]
Saccharomyces cerevisiae [1]; Angeli's salt as HNO donor
  induction of DNA deletions and recombination: potent inducer of DNA deletions and recombination
Saccharomyces cerevisiae [1]; under aerobic and anaerobic conditions
  genotoxicity: observed
Saccharomyces cerevisiae [3]
  induction of point mutations: negative

## CCOS(C)(=O)=O [EMS, ethyl methanesulfonate]
[4]; [6]
  viability at 2 μg/ml: 38.2%
  viability at 5 μg/ml: 8.36%
  viability at 10 μg/ml: 6.7%
[2]; 2 μg/ml final in well
  Cytotoxicity significance: *** (*** (p < 0.005))
  DEL (fold increase): 1.59 fold
  DEL significance: *** (*** (p < 0.005))
[2]; 5 μg/ml final in well
  Cytotoxicity significance: *** (*** (p < 0.005))
  DEL (fold increase): 3.19 fold
  DEL significance: *** (*** (p < 0.005))
[2]; 10 μg/ml final in well
  Cytotoxicity significance: *** (*** (p < 0.005))
  DEL (fold increase): 2.65 fold
  DEL significance: *** (*** (p < 0.005))
[2]; 2, 5 and 10 μg/ml
  growth in +13 media (cytotoxicity): diminished growth in +13 media
  growth in −HIS media (genotoxicity): increased growth in −HIS media

## [Cl][Cr]([Cl])[Cl] [Cr (3), CrCl3]
[2]; 0.2 mM final in well
  Cytotoxicity (% survival): 110.1%
  DEL (fold increase): 0.93 fold
  DEL significance: ns (ns—not significant (p > 0.05))
[2]; 0.7 mM final in well
  Cytotoxicity (% survival): 85.8%
  Cytotoxicity significance: ** (** (p < 0.01))
  DEL (fold increase): 0.98 fold
  DEL significance: ns (ns—not significant (p > 0.05))
[2]; 1.4 mM (~222 μg/ml)
  DEL recombination: significant increase in DEL recombination
[2]; 1.4 mM final in well
  Cytotoxicity (% survival): 36.8%
  Cytotoxicity significance: *** (*** (p < 0.005))
  DEL (fold increase): 1.44 fold
  DEL significance: *** (*** (p < 0.005))
[2]; 0.2 (~32 μg/ml) or 0.7 mM (~111 μg/ml)
  genotoxic events: did not induce any genotoxic events
[2]; well-based format
  lowest detectable concentration (significant genotoxicity): 1.4 mM
Saccharomyces cerevisiae [5]
  increase above background: approximately 13.6 cells
Saccharomyces cerevisiae [1]; 1.4 mM (~222 μg/ml), plate-based assay, previously observed
  DEL events per 100,000 cells: 33.6 DEL events per 100,000 cells
Saccharomyces cerevisiae [1]
  induction of DNA deletions: induced DNA deletions
Saccharomyces cerevisiae [1]; traditional agar plate version
  lowest dose which induced significant genotoxicity: 0.7 mM

## c1ccccc1 [Benzene, benzene]
[4]
  viability at 0.25 mg/ml: 96%
  viability at 0.4 mg/ml: 83.7%
[2]; 0.25 mg/ml final in well
  Cytotoxicity significance: ns (ns—not significant (p > 0.05))
  DEL (fold increase): 1.77 fold
  DEL significance: *** (*** (p < 0.005))
[2]; 0.40 mg/ml final in well
  Cytotoxicity significance: ** (** (p < 0.01))
  DEL (fold increase): 2.31 fold
  DEL significance: *** (*** (p < 0.005))
[2]; 0.25 and 0.40 mg/ml
  DEL induction: significant DEL induction

## O=NN(CCCl)C(=O)NCCCl [Carmustine, carmustine]
[4]; 10 μM final in well
  viability: 91.8%
[4]; 30 μM final in well
  viability: 29.5%
[4]; 50 μM final in well
  viability: 10.7%
[2]
  cytotoxic effects: more pronounced genotoxic and cytotoxic effects
[2]; 10 μM final in well
  DEL significance: * (* (p < 0.05))
[2]; 30 μM final in well
  DEL significance: *** (*** (p < 0.005))
[2]; 50 μM final in well
  DEL significance: *** (*** (p < 0.005))
[2]; well-based DEL assay
  DEL events (DNA deletions) induced by crosslinking agents: significant increase in DEL events

## COS(C)(=O)=O [MMS, methylmethane sulfonate]
[4]; [6]
  viability at 10 nM: 81.2%
  viability at 100 nM: 74.8%
  viability at 500 nM: 38.6%
  viability at 1000 nM: 20.3%
[2]; 10 nM final in well
  Cytotoxicity significance: *** (*** (p < 0.005))
  DEL (fold increase): 1.54 fold
  DEL significance: ** (** (p < 0.01))
[2]; 100 nM final in well
  Cytotoxicity significance: *** (*** (p < 0.005))
  DEL (fold increase): 1.68 fold
  DEL significance: *** (*** (p < 0.005))
[2]; 500 nM final in well
  Cytotoxicity significance: *** (*** (p < 0.005))
  DEL (fold increase): 2.16 fold
  DEL significance: *** (*** (p < 0.005))
[2]; 1000 nM final in well
  Cytotoxicity significance: *** (*** (p < 0.005))
  DEL (fold increase): 3.09 fold
  DEL significance: *** (*** (p < 0.005))
[2]; each concentration between 10-1000 nM
  cytotoxicity: increasingly significantly cytotoxic
[2]; lowest dose tested of 10 nM (0.0011 μg/ml)
  DEL fold-increase: significant increase in DEL fold-increase
